{
  "source": "patent US20100323456A1",
  "about": "(priority 2006, published 2010)",
  "key": {"[1]": {"system": "G-proteins coupled to opioid and ET receptors", "assay": "[35S]GTPγS binding assay (G-protein stimulation) in neuronal membranes of neonatal rat brain, placebo and morphine withdrawal groups", "type": "biochemical", "conditions": "for Effect on [35S]GTPγS binding: brain of neonatal rats; for Effect on GTP binding: morphine withdrawal group compared to placebo; for Maximal stimulation of [35S]GTPγS binding / EC50: neonatal rat brain; for Maximal stimulation of [35S]GTPγS binding: 0.98 to 1000 nM; for EC50: read-out: EC50 for stimulated [35S]GTPγS binding"}, "central ET receptors": {"system": "central ET receptors", "conditions": "intracerebroventricular administration; cited from earlier work"}, "ET receptors": {"system": "ET receptors", "conditions": "co-administration with morphine; cited from earlier work"}},
  "note": "Values joined by “and” are separate entries in the source; they are usually repeats but may differ in a detail not shown here. Equal values may be shown once. “Also recorded” adds a separate entry of the source. Read-outs that look alike come from different tables or passages of the source. Non-standard residues stand in square brackets, D forms with d. Residues, ends and D or L forms follow the SMILES beside them.",
  "data": [
    {"smiles": "CC[C@H](C)[C@H](NC(=O)[C@H](CC(=O)O)NC(=O)[C@H](CC(C)C)NC(=O)[C@H](Cc1c[nH]cn1)NC(=O)[C@@H]1CSSC[C@H](N)C(=O)N[C@@H](CO)C(=O)N[C@H]2CSSC[C@H](NC(=O)[C@H](CCC(=O)O)NC(=O)[C@H](CCCCN)NC(=O)[C@H](CC(=O)O)NC(=O)[C@H](CCSC)NC(=O)[C@H](CC(C)C)NC(=O)[C@H](CO)NC(=O)[C@H](CO)NC2=O)C(=O)N[C@@H](C(C)C)C(=O)N[C@@H](Cc2ccc(O)cc2)C(=O)N[C@@H](Cc2ccccc2)C(=O)N1)C(=O)N[C@H](C(=O)N[C@@H](Cc1c[nH]c2ccccc12)C(=O)O)[C@@H](C)CC", "note": "[ET-1]", "values": [
      {"measurement": "Effect on [35S]GTPγS binding", "setting": "[1]", "result": "concentration-dependent increase"},
      {"measurement": "Effect on GTP binding", "setting": "[1]", "result": "lower; also recorded: attenuated"},
      {"measurement": "Maximal stimulation of [35S]GTPγS binding", "setting": "[1]; morphine withdrawal group", "result": "87.16±4.83", "unit": "%"},
      {"measurement": "EC50", "setting": "[1]; morphine withdrawal group", "result": 171, "unit": "nM"},
      {"measurement": "Maximal stimulation of [35S]GTPγS binding", "setting": "[1]; placebo group", "result": "74.88±1.50", "unit": "%"},
      {"measurement": "EC50", "setting": "[1]; placebo group", "result": "20.66 ± 0.12", "unit": "nM"},
      {"measurement": "Effect on mean arterial blood pressure (BP)", "setting": "central ET receptors", "result": "transient rise followed by sustained fall"}
    ]},
    {"smiles": "Cc1noc(NS(=O)(=O)c2cccc3c(N(C)C)cccc23)c1C", "note": "[BMS182874]", "values": [
      {"measurement": "Effect on [35S]GTPγS binding", "setting": "[1]", "result": "concentration-dependent increase"},
      {"measurement": "Effect on GTP binding", "setting": "[1]", "result": "significantly increased GTP binding"},
      {"measurement": "Maximal stimulation of [35S]GTPγS binding", "setting": "[1]; morphine withdrawal group", "result": 86.07, "unit": "%"},
      {"measurement": "EC50", "setting": "[1]; morphine withdrawal group", "result": "31.2 nM and 33.2 nM"},
      {"measurement": "Effect on G-protein stimulation / GTP binding", "setting": "[1]; placebo (normal) group", "result": "did not affect GTP binding; also recorded: did not stimulate G-proteins"},
      {"measurement": "Maximal stimulation of [35S]GTPγS binding", "setting": "[1]; placebo group", "result": "6.71±1.51", "unit": "%"},
      {"measurement": "EC50", "setting": "[1]; placebo group", "result": "> 1000", "unit": "nM"}
    ]},
    {"smiles": "CC(C)C[C@@H]1NC(=O)[C@@H](C(C)C)NC(=O)[C@@H]2CCCN2C(=O)[C@@H](CC(=O)O)NC(=O)[C@@H](Cc2c[nH]c3ccccc23)NC1=O", "note": "[BQ123] (cyclo(L[dW][dD]P[dV]))", "values": [
      {"measurement": "Effect on morphine-induced analgesia and hyperthermia", "setting": "ET receptors", "result": "potentiate morphine-induced analgesia and hyperthermia without affecting catalepsy"}
    ]},
    {"smiles": "CN1CC[C@]23c4c5ccc(O)c4O[C@H]2[C@@H](O)C=C[C@H]3[C@H]1C5", "note": "[Morphine]", "values": [
      {"measurement": "Effect on [35S]GTPγS binding", "setting": "[1]", "result": "concentration-dependent increase"},
      {"measurement": "Effect on GTP binding", "setting": "[1]", "result": "higher"},
      {"measurement": "Maximal stimulation of [35S]GTPγS binding", "setting": "[1]; morphine withdrawal group", "result": "83.60% and 83.60±5.77%"},
      {"measurement": "Maximal stimulation of [35S]GTPγS binding", "setting": "[1]; placebo group", "result": "66.81% and 66.31±1.51%"}
    ]}
  ]
}
